In patent US10858352B2, “Pharmaceutical compounds” (Heptares Therapeutics Limited, priority 2018, dated 2020):
Read-outs that look alike come from different tables or passages of the source.

Columns and labels:
Type in all cases: cell-based
[1] = molecular target: T1, human muscarinic M2 receptor (Homo sapiens, UniProt P08172); test: Alphascreen Surefire phospho-ERK1/2 functional assay, M2; details: for % Emax cf. ACh (M2): Emax relative to ACh; for Emax: CHO, read-out: % Emax cf. ACh (M2)
T1 sequence (P08172 1-466): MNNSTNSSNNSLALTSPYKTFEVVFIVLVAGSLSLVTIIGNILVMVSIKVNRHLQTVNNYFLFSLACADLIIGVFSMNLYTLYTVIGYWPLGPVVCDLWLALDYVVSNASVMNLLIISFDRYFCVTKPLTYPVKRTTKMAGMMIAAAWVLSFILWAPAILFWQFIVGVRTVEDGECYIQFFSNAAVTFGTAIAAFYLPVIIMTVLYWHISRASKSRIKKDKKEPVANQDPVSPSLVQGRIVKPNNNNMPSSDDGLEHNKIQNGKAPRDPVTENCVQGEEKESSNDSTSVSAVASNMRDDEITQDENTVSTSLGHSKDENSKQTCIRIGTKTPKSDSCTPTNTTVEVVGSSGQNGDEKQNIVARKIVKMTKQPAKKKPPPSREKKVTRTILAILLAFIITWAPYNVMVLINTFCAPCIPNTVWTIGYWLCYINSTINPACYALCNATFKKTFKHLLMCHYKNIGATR
Description: (§1) ERK1/2 phosphorylation is a downstream consequence of both Gq/11 and Gi/o protein coupled receptor activation, making it highly suitable for the assessment of M1, M3 (Gq/11 coupled) and M2, M4 receptors (Gi/o coupled), rather than using different assay formats for different receptor subtypes. CHO cells stably expressing the human muscarinic M1, M2, M3 or M4 receptor were plated (25K/well) onto 96-well tissue culture plates in MEM-alpha+10% dialysed FBS. Once adhered, cells were serum-starved overnight. Agonist stimulation was performed by the addition of 5 μL agonist to the cells for 5 min (37° C.). Media was removed and 50 μL of lysis buffer added. After 15 min, a 4 μL sample was transferred to 384-well plate and 7 μL of detection mixture added. […]

[2] = molecular target: T2, human muscarinic M4 receptor (Homo sapiens, UniProt P08173); test: Alphascreen Surefire phospho-ERK1/2 functional assay, M4; details: for % Emax cf. ACh (M4) / pEC50 M4 / EC50: CHO cells stably expressing human M4; for % Emax cf. ACh (M4) / Emax: Emax relative to ACh; for pEC50 M4 / EC50: agonist 5 min, 37° C.; for EC50: read-out: pEC50 M4 (converted); for Emax: CHO, read-out: % Emax cf. ACh (M4), CHO cells stably expressing human M4
T2 construct: expressed in transfected cells
T2 sequence (P08173 1-479): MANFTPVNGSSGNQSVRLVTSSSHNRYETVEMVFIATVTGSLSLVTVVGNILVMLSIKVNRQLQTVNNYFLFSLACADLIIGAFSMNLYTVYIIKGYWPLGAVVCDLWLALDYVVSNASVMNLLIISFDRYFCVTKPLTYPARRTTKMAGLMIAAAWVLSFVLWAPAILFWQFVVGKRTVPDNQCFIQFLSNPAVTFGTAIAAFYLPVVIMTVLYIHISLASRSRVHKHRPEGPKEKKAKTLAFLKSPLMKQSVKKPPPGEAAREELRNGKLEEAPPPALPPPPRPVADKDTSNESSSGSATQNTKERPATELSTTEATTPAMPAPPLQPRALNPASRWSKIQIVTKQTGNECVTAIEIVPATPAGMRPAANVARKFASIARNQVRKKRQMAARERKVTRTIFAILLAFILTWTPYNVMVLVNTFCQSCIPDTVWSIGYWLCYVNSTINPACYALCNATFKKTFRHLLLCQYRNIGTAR
Description: as §1

[3] = molecular target: T3, human muscarinic M3 receptor (Homo sapiens, UniProt P20309); test: Alphascreen Surefire phospho-ERK1/2 functional assay, M3; details: for % Emax cf. ACh (M3): Emax relative to ACh; for Emax: CHO, read-out: % Emax cf. ACh (M3)
T3 construct: expressed in transfected cells
Description: as §1

[4] = molecular target: T4, human muscarinic M1 receptor (Homo sapiens, UniProt P11229); test: Alphascreen Surefire phospho-ERK1/2 functional assay, M1; details: for % Emax cf. ACh (M1) / Emax: Emax relative to ACh; for pEC50 M1 / EC50: agonist 5 min, 37° C.; for Emax: CHO, read-out: % Emax cf. ACh (M1), CHO cells stably expressing human M1
T4 sequence (P11229 1-460): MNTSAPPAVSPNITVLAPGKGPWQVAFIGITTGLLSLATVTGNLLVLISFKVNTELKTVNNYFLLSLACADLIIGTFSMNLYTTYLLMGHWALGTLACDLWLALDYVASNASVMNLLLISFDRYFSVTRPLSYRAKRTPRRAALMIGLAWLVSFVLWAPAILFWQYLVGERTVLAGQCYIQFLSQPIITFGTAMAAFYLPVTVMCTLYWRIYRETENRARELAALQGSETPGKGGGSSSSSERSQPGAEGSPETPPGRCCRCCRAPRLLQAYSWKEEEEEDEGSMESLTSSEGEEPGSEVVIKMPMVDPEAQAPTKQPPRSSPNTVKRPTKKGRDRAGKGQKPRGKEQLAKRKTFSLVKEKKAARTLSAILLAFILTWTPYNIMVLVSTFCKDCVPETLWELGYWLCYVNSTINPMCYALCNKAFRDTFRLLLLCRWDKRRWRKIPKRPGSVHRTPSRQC
Description: as §1

[5] = CHO cells stably expressing human M2
[6] = CHO cells stably expressing human M2, agonist 5 min, 37° C.
[7] = CHO cells stably expressing human M3
[8] = CHO cells stably expressing human M3, agonist 5 min, 37° C.
[9] = CHO cells stably expressing human M1
[10] = CHO cells stably expressing human M2, agonist 5 min, 37° C., read-out: pEC50 M2 (converted)
[11] = CHO cells stably expressing human M3, agonist 5 min, 37° C., read-out: pEC50 M3 (converted)
[12] = CHO cells stably expressing human M1, read-out: pEC50 M1 (converted)
[13] = pEC50 M1, CHO cells stably expressing human M1

T3 sequence (P20309 whole entry): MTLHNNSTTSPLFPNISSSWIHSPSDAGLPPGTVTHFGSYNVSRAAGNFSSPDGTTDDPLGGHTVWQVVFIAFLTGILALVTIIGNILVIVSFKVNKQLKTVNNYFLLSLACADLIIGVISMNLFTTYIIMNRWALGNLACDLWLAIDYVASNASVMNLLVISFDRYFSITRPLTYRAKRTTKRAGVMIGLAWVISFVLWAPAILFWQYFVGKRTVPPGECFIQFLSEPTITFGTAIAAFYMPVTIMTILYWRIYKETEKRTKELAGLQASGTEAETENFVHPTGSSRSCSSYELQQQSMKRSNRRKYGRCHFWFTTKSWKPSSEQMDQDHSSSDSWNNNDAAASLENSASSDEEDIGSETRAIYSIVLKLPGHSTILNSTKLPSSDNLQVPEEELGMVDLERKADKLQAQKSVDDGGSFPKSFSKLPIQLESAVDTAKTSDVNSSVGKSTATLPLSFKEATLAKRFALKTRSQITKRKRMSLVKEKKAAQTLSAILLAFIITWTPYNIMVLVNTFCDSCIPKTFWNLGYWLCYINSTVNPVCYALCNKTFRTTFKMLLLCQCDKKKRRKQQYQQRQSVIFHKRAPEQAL

% Emax cf. ACh (M4) [2]	pEC50 M4 [2]	% Emax cf. ACh (M1) [4, 9]	pEC50 M1 [4, 9]	Structure (SMILES)	EC50 [2] [nM]	EC50 [4, 12] [nM]	Emax [2] [%]	Emax [4] [%]	other results
(30) %	6.92	(132) %	7.59	CCN(CC)C(=O)[C@H]1[C@@H]2CN(C3CC4COCC(C3)N4c3nc(C(F)(F)F)no3)C[C@@H]21 (single isomer, unassigned; isomer 2) [12-23 Isomer 2]	–	–	–	–	% Emax cf. ACh (M2) [1, 5]: (13) %; pEC50 M2 [1, 6]: <4.70; % Emax cf. ACh (M3) [3, 7]: (25) %; pEC50 M3 [3, 8]: <4.70
(22) %	<4.70	(102) %	6.70	CCN(CC)C(=O)[C@H]1[C@@H]2CN(C3CC4CCC(C3)N4c3nc(C)no3)C[C@@H]21 (single isomer, unassigned; isomer 1) [12-25 Isomer 1]	–	–	–	–	% Emax cf. ACh (M2) [1, 5]: (31) %; pEC50 M2 [1, 6]: <4.70; % Emax cf. ACh (M3) [3, 7]: (50) %; pEC50 M3 [3, 8]: <4.70
(119) %	6.82	(91) %	8.55	CCN(CC)C(=O)[C@H]1[C@@H]2CN(C3CC4CCC(C3)N4c3nc(C)no3)C[C@@H]21 (single isomer, unassigned; isomer 2) [12-25 Isomer 2]	–	–	–	–	% Emax cf. ACh (M2) [1, 5]: (84) %; pEC50 M2 [1, 6]: 6.15; % Emax cf. ACh (M3) [3, 7]: (57) %; pEC50 M3 [3, 8]: 5.29
–	–	–	–	Cc1noc(N2C3CCCC2CC(N2CCC4(CC2)CNC(=O)O4)C3)n1 (single isomer, unassigned) [8-3 Isomer 1]	> 20000	295	67	39	EC50 [1, 10]: > 20000 nM; Emax [1]: 4%; EC50 [3, 11]: > 20000 nM; Emax [3]: 1%
(83) %	6.02	(102) %	7.58	CCN(C)C(=O)[C@H]1[C@@H]2CN(C3CC4CCC(C3)N4c3nc(C)no3)C[C@@H]21 (single isomer, unassigned; isomer 2) [12-24 Isomer 2]	–	–	–	–	% Emax cf. ACh (M2) [1, 5]: (60) %; pEC50 M2 [1, 6]: 5.33; % Emax cf. ACh (M3) [3, 7]: (25) %; pEC50 M3 [3, 8]: <4.70
–	–	–	–	CCN(CC)C(=O)[C@H]1[C@@H]2CN(C3CC4COCC(C3)N4c3nc(C)no3)C[C@@H]21 (single isomer, unassigned) [9-2 Isomer 2]	741	219	74	109	EC50 [1, 10]: > 20000 nM; Emax [1]: 27%; EC50 [3, 11]: 6310 nM; Emax [3]: 42%
–	–	–	–	CCC1(NC(=O)C2CCN(C3CC4CCC(C3)N4c3nc(C)no3)CC2)CCC1 (single isomer, unassigned) [12-8 Isomer 2]	933	135	109	104	EC50 [1, 10]: 2450 nM; Emax [1]: 33%; EC50 [3, 11]: > 20000 nM; Emax [3]: 3%
–	–	–	–	CCc1noc(N2C3CCC2CC(N2CCC4(CC2)CNC(=O)C4)C3)n1 (single isomer, unassigned) [6-3 Isomer 2]	> 20000	–	7	33	EC50 [1]: > 20000 nM; Emax [1]: 3%; EC50 [3]: > 20000 nM; Emax [3]: 1%; EC50 [4, 13]: 32.4 nM
(76) %	–	(70) %	–	Cc1noc(N2CCCC(N3CCC(N4C[C@H](F)C[C@@H]4CO)CC3)CC2)n1 (single isomer, unassigned) [10-7 Isomer 2]	398	4270	–	–	–
–	–	–	–	CC[C@H]1CCC(=O)N1C1CCN(C2CCCN(c3nc(C)no3)CC2)CC1 (single isomer, unassigned) [10-9 Isomer 2]	479	1320	56	53	–
–	–	–	–	Cc1noc(N2C3CCC2CC(N2CCC(C(=O)NCC4(C)CCC4)CC2)C3)n1 (single isomer, unassigned) [12-12 Isomer 2]	209	–	107	80	EC50 [4, 13]: 3.72 nM
–	–	–	–	Cc1noc(N2CC3CC(C2)C3N2CCC(n3cccn3)CC2)n1 (single isomer, unassigned) [5-1 Isomer 1]	1260	> 20000	55	9	–
(16) %	<4.70	(74) %	6.08	CCN(C)C(=O)[C@H]1[C@@H]2CN(C3CC4CCC(C3)N4c3nc(C)no3)C[C@@H]21 (single isomer, unassigned; isomer 1) [12-24 Isomer 1]	–	–	–	–	–
–	–	–	–	Cc1noc(N2C3CCC2CC(N2CCC(C(=O)NC4(C)CCCC4)CC2)C3)n1 (single isomer, unassigned) [12-11 Isomer 2]	2690	661	83	103	–
–	–	–	–	Cc1noc(N2CC3(CC(N4CCC(n5cccn5)CC4)C3)C2)n1 [Example 1-1, 2-(3-Methyl-1,2,4-oxadiazol-5-yl)-6-[4-(1H-pyrazol-1-yl)piperidin-1-yl]-2-azaspiro[3.3]heptane]	513	10200	77	48	–
–	–	–	–	Cc1noc(N2CC3(CCC(N4CCC(n5cccn5)CC4)C3)C2)n1 (single isomer, unassigned) [3-1 Isomer 2]	1230	8320	68	58	–

Structure (SMILES)	% Emax cf. ACh (M4) [2]	pEC50 M4 [2]	% Emax cf. ACh (M1) [4, 9]	pEC50 M1 [4, 9]	EC50 [2] [nM]	EC50 [4, 12] [nM]	Emax [2] [%]	Emax [4] [%]	other results
Cc1noc(N2C3CCC2CC(N2CCC4(CC2)CNC(=O)O4)C3)n1 (single isomer, unassigned) [6-4 Isomer 2]	(39) %	–	(87) %	–	525	257	–	–	EC50 [1, 10]: > 20000 nM; Emax [1]: 5%; EC50 [3, 11]: > 20000 nM; Emax [3]: 32%
O=C1CC2(CCN(C3CC4CCC(C3)N4c3nc(C(F)(F)F)no3)CC2)CN1 (single isomer, unassigned; isomer 2) [12-3 Isomer 2]	(23) %	6.70	(103) %	8.30	–	–	–	–	% Emax cf. ACh (M2) [1, 5]: (14) %; pEC50 M2 [1, 6]: <4.70; % Emax cf. ACh (M3) [3, 7]: (70) %; pEC50 M3 [3, 8]: <4.70
Cc1noc(N2C3CCC2CC(N2CCC4(CC2)CNC(=O)C4)C3)n1 (single isomer, unassigned) [6-2 Isomer 1]	(9) %	–	(34) %	–	> 20000	–	–	–	EC50 [4, 13]: 158 nM
